Assay results: ChEMBL document CHEMBL5036379, “Identification of Slow-Binding Inhibitors of the BoNT/A Protease” (ACS Med Chem Lett, 2022)
Calls of active or inactive are those of the source. No cut-off for these calls is given here.

Assays:
[1] = molecular target: Botulinum neurotoxin type A (Clostridium botulinum) (UniProt P0DPI0); assay: Inhibition of BoNT/A light chain at 1 to 32 uM using SNAPtide flp6 as substrate measured after 30 mins by FRET assay; conditions: dose 1-32 µM, TDE = time-dependent effect
Botulinum neurotoxin type A (Clostridium botulinum), sequence (P0DPI0 2-448 limits assumed): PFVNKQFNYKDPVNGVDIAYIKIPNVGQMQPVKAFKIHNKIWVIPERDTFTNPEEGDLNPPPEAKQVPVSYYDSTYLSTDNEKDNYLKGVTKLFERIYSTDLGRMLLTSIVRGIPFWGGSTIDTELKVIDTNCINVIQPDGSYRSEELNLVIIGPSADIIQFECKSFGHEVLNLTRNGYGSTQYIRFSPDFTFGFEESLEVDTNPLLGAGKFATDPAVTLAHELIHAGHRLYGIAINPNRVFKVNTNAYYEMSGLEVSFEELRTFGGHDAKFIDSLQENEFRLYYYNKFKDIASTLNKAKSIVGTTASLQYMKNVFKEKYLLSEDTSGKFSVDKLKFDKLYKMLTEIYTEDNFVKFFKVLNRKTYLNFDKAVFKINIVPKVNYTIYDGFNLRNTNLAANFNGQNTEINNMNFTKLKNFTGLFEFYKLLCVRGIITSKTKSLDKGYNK

[2] = molecular target: Botulinum neurotoxin type A (Clostridium botulinum, UniProt P0DPI0); assay: Inhibition of Clostridium botulinum BoNT/A light chain assessed as inhibition constant at 10 nM using SNAPtide flp6 as substrate measured after 30 mins by FRET assay
Botulinum neurotoxin type A, sequence (P0DPI0 2-448 limits assumed): as above

[3] = Half life of compound; format: physicochemical
[4] = molecular target: Botulinum neurotoxin type A (Clostridium botulinum) (UniProt P0DPI0); assay: Inhibition of Clostridium botulinum BoNT/A light chain assessed as inhibition constant at 6 to 30 uM using SNAPtide flp6 as substrate measured after 30 mins by FRET assay; conditions: dose 6-30 µM

Compound	inhibition [1]	Ki [2] [µM]	half-life [3] [min]	inhibition [4]
C=CCCCCN(O)C(=O)/C=C/c1ccc(Cl)cc1Cl	Tde	6.31	–	–
C=CCCCCCN(O)C(=O)/C=C/c1ccc(Cl)cc1Cl	Tde	4.66	–	–
C=CCCCCCCN(O)C(=O)/C=C/c1ccc(Cl)cc1Cl	Tde	2.84	–	–
C=CN(O)C(=O)/C=C/c1ccc(Cl)cc1Cl	–	> 32	–	–
C=CCCCN(O)C(=O)/C=C/c1ccc(Cl)cc1Cl	Tde	> 8	–	–
O=C(/C=C/c1ccc(Cl)cc1Cl)N(O)CCCCCC1CC1	–	–	33	Active
CCCCCCCN(O)C(=O)/C=C/c1ccc(Cl)cc1Cl	–	2.47	–	–
C=CCN(O)C(=O)/C=C/c1ccc(Cl)cc1Cl	–	> 16	–	–
